# Results: the supplement of paper PMC10307832
# Columns and labels:
# Assay in all cases: relative viability (nuclei count vs DMSO), 5 days (fraction); higher = more cells survive
# SK-MES-1 = system: SK-MES-1
# In short: (§1)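 For relative viability, nuclei counts in treated wells were divided by those in vehicle wells. Lung cancer cell lines had been pin-tool dosed in 1536-well plates the day after seeding and cultured for 5 days, then fixed and stained in one step (final 0.05% Triton X-100, 1% formaldehyde, 1 ug/ml Hoechst) and imaged at 4×. Doses were one drug alone or a fixed anchor-drug dose plus five library-drug doses (not always all listed) in √10 steps, and values are duplicate-plate medians.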
# NCI-H1623 = system: NCI-H1623
# In short: as §1
# ChaGo-K-1 = system: ChaGo-K-1
# In short: as §1
# NCI-H1651 = system: NCI-H1651
# In short: as §1
# NCI-H1648 = system: NCI-H1648
# In short: as §1
# NCI-H522 = system: NCI-H522
# In short: as §1
compound,measurement,setting,value
C=C1C(=O)O[C@@H](CCCCCCCC)[C@@H]1C(=O)O [C-75] + Cc1cc(Nc2cc(N3CCN(C)CC3)nc(Sc3ccc(NC(=O)C4CC4)cc3)n2)n[nH]1 [Tozasertib] (partner 0.1 µM),relative viability,SK-MES-1; first compound 0.08 µM,0.924
same,relative viability,SK-MES-1; first compound 0.253 µM,0.989
same,relative viability,SK-MES-1; first compound 0.8 µM,0.823
same,relative viability,SK-MES-1; first compound 2.53 µM,0.863
same,relative viability,SK-MES-1; first compound 8 µM,0.898
same,relative viability,NCI-H1623; first compound 0.08 µM,0.471
same,relative viability,NCI-H1623; first compound 0.253 µM,0.417
same,relative viability,NCI-H1623; first compound 0.8 µM,0.477
same,relative viability,NCI-H1623; first compound 2.53 µM,0.419
same,relative viability,NCI-H1623; first compound 8 µM,0.461
same,relative viability,ChaGo-K-1; first compound 0.08 µM,0.215
same,relative viability,ChaGo-K-1; first compound 0.253 µM,0.223
same,relative viability,ChaGo-K-1; first compound 0.8 µM,0.196
same,relative viability,ChaGo-K-1; first compound 2.53 µM,0.195
same,relative viability,ChaGo-K-1; first compound 8 µM,0.231
same,relative viability,NCI-H1651; first compound 0.08 µM,0.694
same,relative viability,NCI-H1651; first compound 0.253 µM,0.995
same,relative viability,NCI-H1651; first compound 0.8 µM,0.706
same,relative viability,NCI-H1651; first compound 2.53 µM,0.688
same,relative viability,NCI-H1651; first compound 8 µM,0.682
same,relative viability,NCI-H1648; first compound 0.08 µM,0.387
same,relative viability,NCI-H1648; first compound 0.253 µM,1.26
same,relative viability,NCI-H1648; first compound 0.8 µM,0.465
same,relative viability,NCI-H1648; first compound 8 µM,0.468
same,relative viability,NCI-H522; first compound 0.08 µM,0.585
same,relative viability,NCI-H522; first compound 0.253 µM,0.598
same,relative viability,NCI-H522; first compound 0.8 µM,0.489
same,relative viability,NCI-H522; first compound 8 µM,0.497
Oc1nc(-c2ccc(C(F)(F)F)cc2)nc2c1CSCC2 [XAV939] + Cc1cc(Nc2cc(N3CCN(C)CC3)nc(Sc3ccc(NC(=O)C4CC4)cc3)n2)n[nH]1 [Tozasertib] (partner 0.1 µM),relative viability,SK-MES-1; first compound 0.08 µM,0.956
same,relative viability,SK-MES-1; first compound 0.253 µM,0.816
same,relative viability,SK-MES-1; first compound 0.8 µM,0.807
same,relative viability,SK-MES-1; first compound 2.53 µM,0.768
same,relative viability,NCI-H1623; first compound 0.08 µM,0.403
same,relative viability,NCI-H1623; first compound 0.253 µM,0.414
same,relative viability,NCI-H1623; first compound 0.8 µM,0.386
same,relative viability,NCI-H1623; first compound 2.53 µM,0.373
same,relative viability,ChaGo-K-1; first compound 0.08 µM,0.216
same,relative viability,ChaGo-K-1; first compound 0.253 µM,0.223
same,relative viability,ChaGo-K-1; first compound 0.8 µM,0.222
same,relative viability,ChaGo-K-1; first compound 2.53 µM,0.209
same,relative viability,NCI-H1651; first compound 0.08 µM,0.726
same,relative viability,NCI-H1651; first compound 0.253 µM,0.58
same,relative viability,NCI-H1651; first compound 0.8 µM,0.763
same,relative viability,NCI-H1651; first compound 2.53 µM,0.639
same,relative viability,NCI-H1648; first compound 0.08 µM,0.664
same,relative viability,NCI-H1648; first compound 0.8 µM,0.453
same,relative viability,NCI-H1648; first compound 2.53 µM,0.275
same,relative viability,NCI-H522; first compound 0.08 µM,0.6
same,relative viability,NCI-H522; first compound 0.253 µM,0.529
same,relative viability,NCI-H522; first compound 0.8 µM,0.568
same,relative viability,NCI-H522; first compound 2.53 µM,0.638
Oc1nc(-c2ccc(C(F)(F)F)cc2)nc2c1CSCC2 [XAV939] + COc1cccc2cc(-c3nc([C@H]4CC[C@H](C(=O)O)CC4)n4ncnc(N)c34)[nH]c12 [OSI-027] (partner 0.5 µM),relative viability,SK-MES-1; first compound 0.08 µM,0.576
same,relative viability,SK-MES-1; first compound 0.253 µM,0.584
same,relative viability,SK-MES-1; first compound 0.8 µM,0.631
same,relative viability,SK-MES-1; first compound 2.53 µM,0.424
same,relative viability,NCI-H1623; first compound 0.08 µM,0.364
same,relative viability,NCI-H1623; first compound 0.253 µM,0.386
same,relative viability,NCI-H1623; first compound 0.8 µM,0.318
same,relative viability,NCI-H1623; first compound 2.53 µM,0.4
same,relative viability,ChaGo-K-1; first compound 0.08 µM,0.562
same,relative viability,ChaGo-K-1; first compound 0.253 µM,0.534
same,relative viability,ChaGo-K-1; first compound 0.8 µM,0.533
same,relative viability,ChaGo-K-1; first compound 2.53 µM,0.472
same,relative viability,NCI-H1651; first compound 0.08 µM,0.925
same,relative viability,NCI-H1651; first compound 0.253 µM,0.711
same,relative viability,NCI-H1651; first compound 0.8 µM,0.838
same,relative viability,NCI-H1651; first compound 2.53 µM,0.69
same,relative viability,NCI-H1648; first compound 0.08 µM,0.273
same,relative viability,NCI-H1648; first compound 0.8 µM,0.236
same,relative viability,NCI-H1648; first compound 2.53 µM,0.225
same,relative viability,NCI-H522; first compound 0.08 µM,0.564
same,relative viability,NCI-H522; first compound 0.253 µM,0.696
same,relative viability,NCI-H522; first compound 0.8 µM,0.68
same,relative viability,NCI-H522; first compound 2.53 µM,0.643
NC(=O)Nc1cc(-c2cccc(F)c2)sc1C(=O)N[C@H]1CCCNC1 [AZD7762] + Cc1cc(Nc2cc(N3CCN(C)CC3)nc(Sc3ccc(NC(=O)C4CC4)cc3)n2)n[nH]1 [Tozasertib] (partner 0.1 µM),relative viability,SK-MES-1; first compound 0.01 µM,0.936
same,relative viability,SK-MES-1; first compound 0.03162 µM,0.865
same,relative viability,SK-MES-1; first compound 0.1 µM,0.798
same,relative viability,SK-MES-1; first compound 0.3162 µM,0.262
same,relative viability,SK-MES-1; first compound 1 µM,0.129
same,relative viability,NCI-H1623; first compound 0.01 µM,0.4
same,relative viability,NCI-H1623; first compound 0.03162 µM,0.43
same,relative viability,NCI-H1623; first compound 0.1 µM,0.44
same,relative viability,NCI-H1623; first compound 0.3162 µM,0.441
same,relative viability,NCI-H1623; first compound 1 µM,0.39
same,relative viability,ChaGo-K-1; first compound 0.01 µM,0.215
same,relative viability,ChaGo-K-1; first compound 0.03162 µM,0.224
same,relative viability,ChaGo-K-1; first compound 0.1 µM,0.239
same,relative viability,ChaGo-K-1; first compound 0.3162 µM,0.197
same,relative viability,ChaGo-K-1; first compound 1 µM,0.227
same,relative viability,NCI-H1651; first compound 0.01 µM,0.788
same,relative viability,NCI-H1651; first compound 0.03162 µM,0.769
same,relative viability,NCI-H1651; first compound 0.1 µM,0.74
same,relative viability,NCI-H1651; first compound 0.3162 µM,0.395
same,relative viability,NCI-H1651; first compound 1 µM,0.191
same,relative viability,NCI-H1648; first compound 0.01 µM,0.527
same,relative viability,NCI-H1648; first compound 0.03162 µM,0.552
same,relative viability,NCI-H1648; first compound 0.1 µM,0.36
same,relative viability,NCI-H1648; first compound 0.3162 µM,0.451
same,relative viability,NCI-H1648; first compound 1 µM,0.425
same,relative viability,NCI-H522; first compound 0.01 µM,0.536
same,relative viability,NCI-H522; first compound 0.03162 µM,0.657
same,relative viability,NCI-H522; first compound 0.1 µM,0.621
same,relative viability,NCI-H522; first compound 0.3162 µM,0.566
same,relative viability,NCI-H522; first compound 1 µM,0.535
CC1(C)CCC(c2ccc(Cl)cc2)=C(CN2CCN(c3ccc(C(=O)NS(=O)(=O)c4ccc(N[C@H](CCN5CCOCC5)CSc5ccccc5)c(S(=O)(=O)C(F)(F)F)c4)cc3)CC2)C1 [Navitoclax] + Cc1cc(Nc2cc(N3CCN(C)CC3)nc(Sc3ccc(NC(=O)C4CC4)cc3)n2)n[nH]1 [Tozasertib] (partner 0.1 µM),relative viability,SK-MES-1; first compound 0.005 µM,0.853
same,relative viability,SK-MES-1; first compound 0.01581 µM,0.976
same,relative viability,SK-MES-1; first compound 0.05 µM,0.953
same,relative viability,SK-MES-1; first compound 0.1581 µM,0.848
same,relative viability,SK-MES-1; first compound 0.5 µM,0.952
same,relative viability,NCI-H1623; first compound 0.005 µM,0.406
same,relative viability,NCI-H1623; first compound 0.01581 µM,0.405
same,relative viability,NCI-H1623; first compound 0.05 µM,0.415
same,relative viability,NCI-H1623; first compound 0.1581 µM,0.464
same,relative viability,NCI-H1623; first compound 0.5 µM,0.4
same,relative viability,ChaGo-K-1; first compound 0.005 µM,0.238
same,relative viability,ChaGo-K-1; first compound 0.01581 µM,0.225
same,relative viability,ChaGo-K-1; first compound 0.05 µM,0.184
same,relative viability,ChaGo-K-1; first compound 0.1581 µM,0.239
same,relative viability,ChaGo-K-1; first compound 0.5 µM,0.216
same,relative viability,NCI-H1651; first compound 0.005 µM,0.586
same,relative viability,NCI-H1651; first compound 0.01581 µM,0.686
same,relative viability,NCI-H1651; first compound 0.05 µM,0.493
same,relative viability,NCI-H1651; first compound 0.1581 µM,0.62
same,relative viability,NCI-H1651; first compound 0.5 µM,0.66
same,relative viability,NCI-H1648; first compound 0.005 µM,0.609
same,relative viability,NCI-H1648; first compound 0.01581 µM,0.506
same,relative viability,NCI-H1648; first compound 0.1581 µM,0.459
same,relative viability,NCI-H1648; first compound 0.5 µM,0.575
same,relative viability,NCI-H522; first compound 0.005 µM,0.574
same,relative viability,NCI-H522; first compound 0.01581 µM,0.535
same,relative viability,NCI-H522; first compound 0.05 µM,0.607
same,relative viability,NCI-H522; first compound 0.1581 µM,0.631
same,relative viability,NCI-H522; first compound 0.5 µM,0.669
O=C(O)c1ccc(-c2c[nH]c3ncc(-c4ccccc4)cc23)cc1C1CCCC1 + COc1cccc2cc(-c3nc([C@H]4CC[C@H](C(=O)O)CC4)n4ncnc(N)c34)[nH]c12 [OSI-027] (partner 0.5 µM),relative viability,SK-MES-1; first compound 0.04 µM,0.647
same,relative viability,SK-MES-1; first compound 0.1265 µM,0.648
same,relative viability,SK-MES-1; first compound 0.4 µM,0.622
same,relative viability,SK-MES-1; first compound 1.265 µM,0.41
same,relative viability,NCI-H1623; first compound 0.04 µM,0.4
same,relative viability,NCI-H1623; first compound 0.1265 µM,0.455
same,relative viability,NCI-H1623; first compound 0.4 µM,0.449
same,relative viability,NCI-H1623; first compound 1.265 µM,0.432
same,relative viability,ChaGo-K-1; first compound 0.04 µM,0.651
same,relative viability,ChaGo-K-1; first compound 0.1265 µM,0.595
same,relative viability,ChaGo-K-1; first compound 0.4 µM,0.532
same,relative viability,ChaGo-K-1; first compound 1.265 µM,0.51
same,relative viability,NCI-H1651; first compound 0.04 µM,0.659
same,relative viability,NCI-H1651; first compound 0.1265 µM,0.715
same,relative viability,NCI-H1651; first compound 0.4 µM,0.67
same,relative viability,NCI-H1651; first compound 1.265 µM,0.583
same,relative viability,NCI-H1648; first compound 0.04 µM,0.245
same,relative viability,NCI-H1648; first compound 0.1265 µM,0.246
same,relative viability,NCI-H1648; first compound 0.4 µM,0.254
same,relative viability,NCI-H1648; first compound 1.265 µM,0.239
same,relative viability,NCI-H522; first compound 0.04 µM,0.756
same,relative viability,NCI-H522; first compound 0.1265 µM,0.74
same,relative viability,NCI-H522; first compound 0.4 µM,0.56
same,relative viability,NCI-H522; first compound 1.265 µM,0.775
